Assay [1] in a line: Binding affinity for alpha 1d adrenoceptor.
Assay [2] in a line: Binding affinity for alpha 1b adrenoceptor.
The nature of assay [3]: Binding affinity for alpha 1a adrenoceptor.

For 30 compounds, pK results are on record in ChEMBL document CHEMBL1140338, “Range and sensitivity as descriptors of molecular property spaces in dynamic QSAR analyses” (J Med Chem, 2005).

For `C[C@H](Cc1cc2c(c(C(N)=O)c1)N(CCCO)CC2)NCCOc1ccccc1OCC(F)(F)F`, the pK was found to be 8.7 in assay [1], 7.7 in assay [2] and 10.4 in assay [3].
For `Cc1c[nH]c(=O)n(CCCN2CCN(c3ccc(F)cc3OCC(F)(F)F)CC2)c1=O`, the results for the pK in assay [1], in assay [2] and in assay [3] were 7, 7.1 and 9, respectively.
The corresponding values for `COc1ccccc1N1CCN(CCN(C(=O)C2CCCCC2)c2ccccn2)CC1` are 7.2, 6.73 and 7.24.
For `COc1ccccc1N1CCN(CCCNC(=O)c2cccc3c(=O)c(C)c(-c4ccccc4)oc23)CC1`, the results for the pK in assay [1] and in assay [3] were 8.6 and 9, respectively.
`COc1cccc(OC)c1OCCNCC1CSc2ccccc2O1` (stereo unspecified): the pK in assay [1] came out at 9.4; in assay [2], 8.4; in assay [3], 9.7.
As for `COc1cc2c(cc1O)C1Cc3ccc(OC)c(O)c3CN1CC2` (stereo unspecified), the pK in assay [1] is 7.6; in assay [2], 6.44; in assay [3] it was 6.21.
`O=C(CCCN1CCC2(CC1)C(=O)NCN2c1ccccc1)c1ccc(F)cc1`: the pK was 7.89 in assay [1], 9.3 in assay [2] and 8.1 in assay [3].
For the compound `COc1cc2c(cc1OC)CN(c1cc(N)c3cc(OC)c(OC)cc3n1)CC2`, the pK amounted to 10.4 in assay [1], 10.1 in assay [2] and 10.4 in assay [3].
Turning to `CCC1=C(C(N)=O)[C@H](c2ccc([N+](=O)[O-])cc2)C(C(=O)NCCCN2CCC(c3ccccc3)(c3ccccc3)CC2)=C(COCCN)N1`, the pK was found to be 6.4 in assay [1], 6.49 in assay [2] and 9.19 in assay [3].
For `O=C(NC1CCN(CCc2c[nH]c3ccccc23)CC1)c1ccccc1`, in that order: 6.8, 7.4 and 8.4.
Regarding `COc1cc2nc(N3CCN(C(=O)C4CCCO4)CC3)nc(N)c2cc1OC` (stereo unspecified), the pK in assay [1] turned out to be 8.6; in assay [3] it was 8.2.
Turning to `COC(=O)C1=C(C)NC(C)=C(C(=O)NCCCN2CCC(c3ccccc3)(c3ccccc3)CC2)C1c1ccc([N+](=O)[O-])cc1` (stereo unspecified), the pK amounted to 7.18 in assay [1], 7.89 in assay [2] and 9.64 in assay [3].
Take `COC(=O)C1=C(C)NC(C)=C(C(=O)OCCCN2CCC(c3ccccc3)(c3ccccc3)CC2)[C@H]1c1cccc([N+](=O)[O-])c1`: the figures for the pK in assay [1], in assay [2] and in assay [3] were 7, 7.26 and 9.82, respectively.
In the case of `CC(C)(Cc1c[nH]c2ccc(Cl)cc12)NCCOc1ccccc1OCC1CC1`, the pK turned out to be 7.8 in assay [1], 7.8 in assay [2] and 9.22 in assay [3].
Take `Cc1ccc(N(CC2=NCCN2)c2cccc(O)c2)cc1`: the figures for the pK in assay [1], in assay [2] and in assay [3] were 8.1, 8.1 and 8.8, respectively.
Consider `COc1cccc2c1CC[C@H]1CN(CCn3c(=O)[nH]c4c(sc5cccnc54)c3=O)C[C@@H]21`, for which the pK in assay [1] is 9.01; in assay [2], 8.16; in assay [3], 9.66.
Take `COC(=O)[C@H]1[C@H]2C[C@H]3c4[nH]c5ccccc5c4CCN3C[C@@H]2CC[C@@H]1O`: the pK in assay [1] was determined as 6.6; in assay [2], 6.29; in assay [3], 6.85.
For `C=Cc1sc2ccc(Cl)c3c2c1CN(C)CC3`, in that order: 8.28, 7.2 and 7.36.
Take `CC1=C(C(N)=O)[C@H](c2ccc([N+](=O)[O-])cc2)C(C(=O)NCCCCN2CCC(c3ccccc3)(c3ccccc3)CC2)=C(C)N1`: the pK in assay [1] was determined as 6.4; in assay [2], 6.48; in assay [3], 8.72.
`COc1cccc(OC)c1OCCNCC1COc2ccccc2O1` (stereo unspecified): the pK in assay [1] is 9.6; in assay [3], 9.8.
As for `COc1ccccc1N1CCN(CCN2C(=O)CC3(CCCC3)CC2=O)CC1`, the pK is 8.2 in assay [1], 6.2 in assay [2] and 6.6 in assay [3].
For `COc1cc2nc(N3CCN(C(=O)c4ccco4)[C@H]4CCCC[C@H]43)nc(N)c2cc1OC`, in that order: 8.49, 9.89 and 7.92.
The corresponding values for `COc1ccccc1N1CCN(CCCCN2C(=O)c3ccccc3C2=O)CC1` are 9.1, 7.82 and 8.7.
The corresponding values for `COc1cc2nc(N3CCN(C(=O)COc4c(OC)cccc4C(C)C)CC3)nc(N)c2cc1OC` are 8.59, 9.52 and 8.72.
With `COc1ccccc1N1CCN(CCCNc2c(C)c(=O)n(C)c(=O)n2C)CC1`, the figures for the pK in assay [1], in assay [2] and in assay [3] were 8, 7.4 and 9.2, respectively.
In the case of `COc1cc2nc(N3CCN(C(=O)C4COc5ccccc5O4)CC3)nc(N)c2cc1OC` (stereo unspecified), the pK was determined as 8.4 in assay [1] and 9 in assay [2].
On to `COc1c(C)c(C)c(O)c(C)c1CN(C)CCOc1cc(C)c(O)cc1C(C)C`, for which the figures for the pK in assay [1], in assay [2] and in assay [3] were 8.92, 8.92 and 9.4, respectively.
With `C[C@H](CN1CCN(c2cc(F)c(F)cc2F)CC1)N1C(=O)CC2(CCCC2)CC1=O`, the figures for the pK in assay [1], in assay [2] and in assay [3] were 8.8, 6.72 and 6.53, respectively.
With `CCCC(=O)N1CCCN(c2nc(N)c3cc(OC)c(OC)cc3n2)CC1`, the pK in assay [1] worked out at 9; in assay [2], 9; in assay [3] it was 9.3.
In the case of `COc1cc2nc(N(C)CCCNC(=O)C3CCCO3)nc(N)c2cc1OC` (stereo unspecified), the values for the pK in assay [1], in assay [2] and in assay [3] were 8.5, 8 and 8, respectively.
